Measurements reported in patent US20150086557A1, “NOVEL INTEGRIN alpha9 beta1 LIGAND AND USES THEREOF” (OSAKA UNIVERSITY, priority 2012, published 2015).

Key:
[1] = target: T1, integrin α9β1 (Homo sapiens, UniProt P05556+Q13797); assay: Integrin α9β1-pol-C binding inhibition assay with synthetic peptides; details: integrin α9β1 10 nM, pol-C 10 nM, 1 mM MnCl2, 10% DMSO, FIG. 15
T1 construct: A cDNA encoding the extracellular region of human integrin α9; An expression vector for the extracellular region of integrin β1; ACID coiled-coil (Velcro) peptide; FLAG; BASE coiled-coil (Velcro) peptide; made in house; host or cells: FreeStyle 293 Expression System (293-F cells)
Experimental: An integrin binding assay was performed as described in the above-mentioned publication Matrix Biol. 25, […], (2006). In some experiments, integrins were preincubated with synthetic peptides at various concentrations to evaluate the inhibitory activities of the synthetic peptides. The apparent dissociation constants were determined as described in Nishiuchi, R., Murayama, O., Fujiwara, H., Gu, J., Kawakami. T., Aimoto, S., Wada, Y., and Sekiguchi, K. (2003) J. Biochem, 134, 497-504.
To further corroborate the role of EDDMMEVPY as the integrin α9β1 recognition sequence, an integrin α9β1-pol-C binding inhibition assay was performed using synthetic peptides consisting of the EDDMMEVPY sequence or a part of the sequence, Integrin α9β1 (10 nM) was incubated on microtiter plates coated with pol-C (10 nM) in the presence of 1 mM MnCl2 and various concentrations of the synthetic peptides. To prevent precipitation of the peptides, the assay was performed in the presence of 10% DMSO. Based on the amount of integrin α9β1 bound to pol-C set as 100%, the relative binding amount was calculated.

[2] = system: cardiac stem cells; assay: Colony forming ability of GFP label-retaining cells (cardiac stem cells); assay type: cell-based, mouse; details: 100 nM coating, 1×10^4 cells/well, 2 weeks, FIG. 26
Source text: (§1) Tissue stem cells are known to generally have a very prolonged, cell cycle and thus allow labeling compounds incorporated into DNA and the cell interior to remain stable for a long period of time without decay along with cell division, This nature can be advantageously used to identify and separate tissue stem cells by short-term labeling or cells with a nucleotide analog such as bromodeoxyuridine (BrdU) or a fusion protein of green fluorescent protein (hereinafter referred to as “GFP”) and a nucleoprotein, histone, followed by selection of cells retaining the label for a long period of time (label-retaining cells). In this experiment, with the use of a tetracycline-inducible expression system in combination with the ROSA26 promoter, a fusion protein of GFP and histone H2B (H2B-GFP) was expressed in the heart of a mouse for 2 weeks starting 1 week before birth, and 6 weeks later, cardiac stem cells were separated as GFP label-retaining cells from the heart.
To explore whether cardiac stem cells proliferate on a polydom-coated plate, colony formation was measured, as an indicator of proliferation. A Falcon 6-well plate was coated with 800 μl/well of 100 nM polydom or fibronectin at 4° C. overnight. GFP label-retaining cells were collected by FACSAria and suspended in IMDM containing 10% fetal calf serum. […] After drying, the number of colonies was counted under a microscope.

[3] = system: cardiac stem cells; assay: Cell adhesion assay using GFP label-retaining cells (cardiac stem cells); assay type: cell-based, mouse; details: 100 nM coating, 12 hours, serum-free IMDM, FIG. 25
Source text: as §1
To explore whether polydom serves as a scaffold for integrin α9β1-expressing cardiac stem cells, cardiac stem cells were separated as GFP label-retaining cells and subjected to a cell adhesion assay. A 96-well immuno plate (Nunc Maxisorp) was coated with 50 μl/well of 100 nM polydom or fibronectin at 4° C. overnight, GFP label-retaining cells were collected by FACSAria and suspended at 1×10^6 cells/ml in serum-free Iscove's Modified Dulbecco Medium (hereinafter referred to as “IMDM”). The cell suspension was plated at 100 μl/well and cultured in a 5% CO2 incubator at 37° C. for 12 hours. After three washes with PBS, the cells were fixed with 100 μl/well of 3.7% formalin for 15 minutes. Then, the cells were incubated with 0.5% toluidine blue (150 μl/well) for 10 minutes and washed with MilliQ water. After drying, the number of attached cells was counted under a microscope.

[4] = system: hematopoietic stem cells; assay: FACS analysis of differentiation of hematopoietic stem cells on coated wells; assay type: cell-based, mouse; details: day 3 of culture on coated well, FIG. 19
Experimental: (§2) Bone marrow cells were flushed out from the femurs and tibias of three mice of 6 to 7 weeks of age (C57BL/6J) and dissociated with a 22G needle. The cells were reacted with a biotin-labeled anti-lineage antibody for 30 minutes and subsequently with an anti-blotin antibody-conjugated magnetic beads, and lineage-positive cells were removed by automated magnetic cell sorter autoMACS (Miltenyi Biotec). After staining with PE-CD3, PE-Mac1, PE-Gr1, PE-Ter119, PE-B220, FTTC-Sca1 and APC-c-Kit, a lineage(−) Sca1(+) c-Kit (high) cell fraction was sorted out using FACSAria and used for the experiments described below.
(§3) The above-prepared cells were plated on a 48-well plate coated with a recombinant polydom protein or fibronectin. The same type of plate without coating was used as a control. The medium used was RPMI containing 10% fetal calf serum, thrombopoietin (30 ng/ml) and flt3 ligand (100 ng/ml). For the examination of cell proliferation, the cells were plated in duplicate wells for each coating at 1000 cells/well and started to be cultured, and the cell number was counted at the start of culture, and on day 2 and day 3. The remaining cells were divided into three aliquots, plated in wells for each coating, and subjected to FACS analysis on day 3 after the start of culture. For the FACS analysis, staining with an antibody cocktail containing PE-CD3, PE-Mac1, PE-Gr1, PE-Ter119, PE-B220, FITC-Sca1 and APC-c-Kit was performed and FACSCont was used.

[5] = system: hematopoietic stem cells; assay: Proliferation of hematopoietic stem cells on coated plates; assay type: cell-based, mouse
Experimental: as §2, §3
The above-prepared cells were divided into three groups and plated on 48-well plates at 5000 cells/well. The medium used was RPMI containing 10% fetal calf serum, thrombopoietin (30 ng/ml) and flt3 ligand (100 ng/ml). For an EDDMMEVPY peptide treatment group, 2 μl of the peptide was added to each well at the final concentration of 50 μM, and for the other two groups, 2 μl of PBS was added to each well. Then, the culture was performed at […] for 2 hours. Subsequently, the cells were transferred to 48-well plates coated with a recombinant polydom protein or fibronectin. The cells cultured in the presence of the peptide were transferred to the recombinant polydom protein-coated plate, and the cells in one of the other two groups were transferred to the recombinant polydom protein-coated plate, and the cells in the remaining group were transferred to the fibronectin-coated plate. The culture was continued for 3 days and the cell numbers were counted on day 2, day 3 and […].

[6] = target: integrin α9β1 on RD cells (human rhabdomyosarcoma cells) (human) (UniProt Q13797); assay: cell-based or functional assay
Sequence of integrin α9β1 on RD cells (human rhabdomyosarcoma cells) (human) (Q13797 30-1035, chain 1 of 2): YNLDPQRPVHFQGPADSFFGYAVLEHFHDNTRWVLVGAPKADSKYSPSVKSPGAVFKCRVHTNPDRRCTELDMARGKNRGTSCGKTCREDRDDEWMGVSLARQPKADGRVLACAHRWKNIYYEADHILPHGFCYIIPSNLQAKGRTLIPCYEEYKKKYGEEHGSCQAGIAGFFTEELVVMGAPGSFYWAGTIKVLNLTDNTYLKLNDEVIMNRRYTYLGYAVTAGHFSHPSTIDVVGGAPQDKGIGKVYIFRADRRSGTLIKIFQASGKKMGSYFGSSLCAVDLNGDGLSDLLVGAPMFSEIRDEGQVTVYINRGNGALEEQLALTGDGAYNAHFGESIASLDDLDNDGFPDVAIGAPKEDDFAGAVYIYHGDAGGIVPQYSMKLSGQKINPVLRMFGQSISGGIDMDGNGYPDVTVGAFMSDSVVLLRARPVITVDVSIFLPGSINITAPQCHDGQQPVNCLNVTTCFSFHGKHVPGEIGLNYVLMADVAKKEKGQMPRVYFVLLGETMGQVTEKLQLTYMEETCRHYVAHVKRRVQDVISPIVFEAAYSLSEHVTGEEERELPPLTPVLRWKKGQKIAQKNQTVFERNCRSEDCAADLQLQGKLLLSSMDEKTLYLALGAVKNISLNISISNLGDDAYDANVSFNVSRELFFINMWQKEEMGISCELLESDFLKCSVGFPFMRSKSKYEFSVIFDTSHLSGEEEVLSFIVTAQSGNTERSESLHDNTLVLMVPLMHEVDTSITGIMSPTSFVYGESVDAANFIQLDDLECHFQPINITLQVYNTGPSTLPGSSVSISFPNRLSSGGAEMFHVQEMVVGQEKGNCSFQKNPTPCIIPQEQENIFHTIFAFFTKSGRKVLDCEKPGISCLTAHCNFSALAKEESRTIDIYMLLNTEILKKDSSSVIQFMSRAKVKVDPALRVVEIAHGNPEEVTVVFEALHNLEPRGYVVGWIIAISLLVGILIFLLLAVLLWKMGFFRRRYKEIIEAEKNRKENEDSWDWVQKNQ
Sequence of integrin α9β1 on RD cells (human rhabdomyosarcoma cells) (human) (P05556 21-798, chain 2 of 2, further chain): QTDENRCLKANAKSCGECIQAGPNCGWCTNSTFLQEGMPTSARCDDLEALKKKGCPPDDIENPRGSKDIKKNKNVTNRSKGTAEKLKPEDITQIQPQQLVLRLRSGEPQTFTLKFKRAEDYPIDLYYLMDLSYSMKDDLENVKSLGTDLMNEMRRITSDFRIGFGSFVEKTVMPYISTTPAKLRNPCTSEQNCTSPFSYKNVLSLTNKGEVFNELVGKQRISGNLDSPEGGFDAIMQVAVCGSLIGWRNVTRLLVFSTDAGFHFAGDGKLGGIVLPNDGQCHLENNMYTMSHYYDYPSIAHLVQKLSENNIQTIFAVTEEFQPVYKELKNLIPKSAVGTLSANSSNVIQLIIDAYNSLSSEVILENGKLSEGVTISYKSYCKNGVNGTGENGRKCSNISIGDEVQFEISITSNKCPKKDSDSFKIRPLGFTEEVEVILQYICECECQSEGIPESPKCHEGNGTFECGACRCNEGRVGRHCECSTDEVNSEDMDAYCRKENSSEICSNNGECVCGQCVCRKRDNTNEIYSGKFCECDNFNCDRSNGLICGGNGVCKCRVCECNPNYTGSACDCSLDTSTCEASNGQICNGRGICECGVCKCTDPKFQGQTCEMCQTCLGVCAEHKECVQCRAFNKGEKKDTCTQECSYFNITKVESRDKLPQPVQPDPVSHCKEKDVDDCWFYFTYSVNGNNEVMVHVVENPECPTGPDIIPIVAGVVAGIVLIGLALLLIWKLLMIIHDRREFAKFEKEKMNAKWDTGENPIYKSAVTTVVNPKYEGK

T1 sequence (Q13797 30-981 limits assumed): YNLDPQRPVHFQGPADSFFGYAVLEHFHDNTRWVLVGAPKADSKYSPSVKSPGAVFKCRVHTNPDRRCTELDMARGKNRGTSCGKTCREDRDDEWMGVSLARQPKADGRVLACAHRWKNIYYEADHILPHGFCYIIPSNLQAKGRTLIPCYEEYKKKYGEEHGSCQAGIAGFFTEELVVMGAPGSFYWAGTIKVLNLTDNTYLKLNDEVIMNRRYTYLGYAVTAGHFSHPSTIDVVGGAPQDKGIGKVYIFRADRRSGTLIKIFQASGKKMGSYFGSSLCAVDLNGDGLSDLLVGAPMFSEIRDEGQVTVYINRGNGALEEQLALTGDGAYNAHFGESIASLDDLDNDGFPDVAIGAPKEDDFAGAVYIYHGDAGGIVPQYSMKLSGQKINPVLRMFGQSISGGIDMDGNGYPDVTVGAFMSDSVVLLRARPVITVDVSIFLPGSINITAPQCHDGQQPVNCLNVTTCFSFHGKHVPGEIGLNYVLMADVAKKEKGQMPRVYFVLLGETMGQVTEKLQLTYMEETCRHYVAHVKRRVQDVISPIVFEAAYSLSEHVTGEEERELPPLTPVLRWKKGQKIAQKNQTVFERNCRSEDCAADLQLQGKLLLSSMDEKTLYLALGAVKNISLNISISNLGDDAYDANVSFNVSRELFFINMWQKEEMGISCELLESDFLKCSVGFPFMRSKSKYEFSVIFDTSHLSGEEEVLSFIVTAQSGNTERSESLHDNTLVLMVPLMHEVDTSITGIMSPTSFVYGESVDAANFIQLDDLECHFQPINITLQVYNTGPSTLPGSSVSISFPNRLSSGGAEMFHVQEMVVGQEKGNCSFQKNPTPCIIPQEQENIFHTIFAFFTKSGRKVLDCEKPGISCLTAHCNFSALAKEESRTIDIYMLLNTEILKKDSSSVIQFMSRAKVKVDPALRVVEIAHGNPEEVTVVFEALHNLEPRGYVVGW
T1 sequence (P05556 21-728 limits assumed): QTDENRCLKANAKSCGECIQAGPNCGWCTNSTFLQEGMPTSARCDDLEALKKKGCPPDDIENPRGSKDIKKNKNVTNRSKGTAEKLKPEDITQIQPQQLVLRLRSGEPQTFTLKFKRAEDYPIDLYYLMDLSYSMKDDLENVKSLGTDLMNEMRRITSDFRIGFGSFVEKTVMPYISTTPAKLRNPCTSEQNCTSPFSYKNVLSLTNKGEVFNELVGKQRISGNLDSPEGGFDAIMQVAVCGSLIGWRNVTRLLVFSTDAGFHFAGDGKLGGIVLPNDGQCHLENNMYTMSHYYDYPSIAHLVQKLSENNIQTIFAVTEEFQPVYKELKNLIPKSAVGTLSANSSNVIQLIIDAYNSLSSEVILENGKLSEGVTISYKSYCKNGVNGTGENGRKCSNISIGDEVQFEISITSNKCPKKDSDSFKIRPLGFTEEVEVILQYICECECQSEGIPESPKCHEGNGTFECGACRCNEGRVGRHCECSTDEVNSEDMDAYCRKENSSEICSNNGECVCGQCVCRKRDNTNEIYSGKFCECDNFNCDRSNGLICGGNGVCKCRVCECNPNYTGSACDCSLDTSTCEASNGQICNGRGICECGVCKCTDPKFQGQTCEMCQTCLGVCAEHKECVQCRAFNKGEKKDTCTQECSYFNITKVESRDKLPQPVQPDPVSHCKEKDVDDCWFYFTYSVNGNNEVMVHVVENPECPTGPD

In the case of TYSSPEDGIHE [reference compound], the “inhibitory potency toward binding of integrin α9β1 to pol-C” value [1] is reported as “barely inhibitory”.

For fibronectin [reference compound], the “colony forming activity (colony count relative to the number of cells plated)” value [2] was “about 0.4%”, the “adhesion of cardiac stem cells to coated plate” value [3] was “a large number of the cells adhered” and the “expression of c-Kit on hematopoietic stem cells” value [4] was “increased expression of c-Kit”. For the same substance, the “proliferation of hematopoietic stem cells on coated wells” value ([5]; 1000 cells/well, counted to day 3, versus uncoated control, FIG. 18) was “proliferated as with the control” and the “proliferation of hematopoietic stem cells on coated plate after PBS pretreatment” value ([5]; 5000 cells/well, counted day 2 to day 4, FIG. 20) was “proliferated”.

In the case of “full-length polydom (recombinant mouse SVEP1) (from UniProt A2AVA0 18-3567) (ligand)”, the adhesion of RD cells to coated full-length polydom [6] is reported as 3 µg/mL.

In the case of DMMEVPY, the “inhibitory potency toward binding of integrin α9β1 to pol-C” value [1] is reported as “nearly as potent as EDDMMEVPY”.
